Experiment in all cases: stopped-flow CO2 hydrase assay
Assay type in all cases: biochemical

One assay addresses T1, hCA IX (Homo sapiens, UniProt Q16790).
T1 construct: gene CA9; recombinant, obtained in house
An excerpt:
stopped-flow CO2 hydrase assay on hCA IX

The next assay concerns the target T2, hCA II (Homo sapiens, UniProt P00918).
T2 construct: gene CA2; recombinant, obtained in house
The settings on record: read-out: KI (μM) ^a / hCA I. From the text: stopped-flow CO2 hydrase assay on hCA II

The next assay addresses T3, hCA XII (Homo sapiens, UniProt O43570).
T3 construct: gene CA12; recombinant, obtained in house
An excerpt: stopped-flow CO2 hydrase assay on hCA XII

The next assay addresses T4, hCA I (Homo sapiens, UniProt P00915).
T4 construct: gene CA1; recombinant, obtained in house
An excerpt:
stopped-flow CO2 hydrase assay on hCA I

Setting [1] is: pH […] ([…] Hepes), […] Na2SO4, […] min preincubation at room temperature.

Where two headings read alike, the source gives them in different places.

T4 sequence (P00915 2-261): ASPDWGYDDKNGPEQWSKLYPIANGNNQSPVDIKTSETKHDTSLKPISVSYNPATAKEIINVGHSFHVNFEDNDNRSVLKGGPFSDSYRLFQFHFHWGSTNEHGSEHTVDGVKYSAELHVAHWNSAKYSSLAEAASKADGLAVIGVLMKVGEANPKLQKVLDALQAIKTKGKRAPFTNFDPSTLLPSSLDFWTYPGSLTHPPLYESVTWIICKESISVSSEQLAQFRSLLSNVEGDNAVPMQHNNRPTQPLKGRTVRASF
T3 sequence (O43570 30-289 limits assumed): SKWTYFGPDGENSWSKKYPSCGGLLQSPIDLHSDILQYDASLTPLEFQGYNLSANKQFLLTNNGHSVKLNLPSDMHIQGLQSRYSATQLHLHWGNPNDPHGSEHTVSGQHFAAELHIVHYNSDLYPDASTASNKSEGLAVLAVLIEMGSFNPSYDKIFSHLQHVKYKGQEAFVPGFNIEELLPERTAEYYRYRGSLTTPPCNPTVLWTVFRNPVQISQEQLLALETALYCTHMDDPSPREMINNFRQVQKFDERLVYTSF

`O=C(O)c1ccc(=O)oc1` [compound 1, coumalic acid]: the Ki was 0.073 µM on hCA IX, more than 100 µM on hCA II, 0.083 µM on hCA XII and more than 100 µM on hCA I.

`O=C(Nc1ccccc1)c1ccc(=O)oc1` [compound 2, 2-Oxo-N-phenyl-2H-pyran-5-carboxamide]: the Ki on hCA IX was 3 µM; on hCA II it was more than 100 µM; at hCA XII it was 0.7 µM; at hCA I, more than 100 µM.

In the case of `Cc1ccc(NC(=O)c2ccc(=O)oc2)cc1` [compound 3, 2-Oxo-N-(p-tolyl)-2H-pyran-5-carboxamide], the Ki on hCA IX was 2.9 µM; at hCA II, more than 100 µM; at hCA XII it was 0.8 µM; on hCA I, more than 100 µM.

With `Cc1cccc(NC(=O)c2ccc(=O)oc2)c1` [compound 4, 2-Oxo-N-(m-tolyl)-2H-pyran-5-carboxamide], the Ki on hCA IX was 0.174 µM; at hCA II, more than 100 µM; at hCA XII, 0.09 µM; on hCA I, more than 100 µM.

`CC(C)c1ccc(NC(=O)c2ccc(=O)oc2)cc1` [compound 5, N-(4-Isopropylphenyl)-2-oxo-2H-pyran-5-carboxamide]: the Ki on hCA IX is 0.273 µM; on hCA II, more than 100 µM; on hCA XII, 0.068 µM; on hCA I, more than 100 µM.

With `COc1ccc(NC(=O)c2ccc(=O)oc2)cc1` [compound 6, N-(4-Methoxyphenyl)-2-oxo-2H-pyran-5-carboxamide], the Ki on hCA IX was 3.1 µM; at hCA II it was more than 100 µM; at hCA XII, 0.7 µM; at hCA I it was more than 100 µM.

Regarding `COc1cccc(NC(=O)c2ccc(=O)oc2)c1` [compound 7, N-(3-Methoxyphenyl)-2-oxo-2H-pyran-5-carboxamide], the Ki was 0.315 µM at hCA IX, more than 100 µM at hCA II, 0.265 µM on hCA XII and more than 100 µM on hCA I.

With `O=C(Nc1ccc(Cl)cc1)c1ccc(=O)oc1` [compound 8, N-(4-Chlorophenyl)-2-oxo-2H-pyran-5-carboxamide], the Ki is 3.2 µM on hCA IX, more than 100 µM on hCA II, 0.7 µM at hCA XII and more than 100 µM on hCA I.

As to `O=C(Nc1ccc(Br)cc1)c1ccc(=O)oc1` [compound 9, N-(4-Bromophenyl)-2-oxo-2H-pyran-5-carboxamide], the Ki on hCA IX was 0.082 µM; at hCA II, more than 100 µM; on hCA XII, 0.089 µM; at hCA I, more than 100 µM.

`O=C(Nc1ccccc1I)c1ccc(=O)oc1` [compound 10, N-(2-Iodophenyl)-2-oxo-2H-pyran-5-carboxamide]: the Ki at hCA IX is 0.281 µM; on hCA II, more than 100 µM; on hCA XII it was 0.081 µM; at hCA I it was more than 100 µM.

On to `O=C(Nc1ccc(-c2ccccc2)cc1)c1ccc(=O)oc1` [compound 11, N-([1,1′-Biphenyl]-4-yl)-2-oxo-2H-pyran-5-carboxamide], for which the Ki at hCA IX is 0.083 µM; on hCA II, more than 100 µM; at hCA XII, 0.076 µM; on hCA I, more than 100 µM.

For `O=C(Nc1ccccc1Cc1ccccc1)c1ccc(=O)oc1` [compound 12, N-(2-Benzylphenyl)-2-oxo-2H-pyran-5-carboxamide], the Ki at hCA IX is 0.146 µM; at hCA II, more than 100 µM; on hCA XII, 0.08 µM; at hCA I, more than 100 µM.

Regarding `O=C(Nc1cccc2ccccc12)c1ccc(=O)oc1` [compound 13, N-(Naphthalen-1-yl)-2-oxo-2H-pyran-5-carboxamide], the Ki is 3.69 µM on hCA IX, more than 100 µM at hCA II, 0.094 µM on hCA XII and more than 100 µM on hCA I.

Consider `O=C(NC1CCCCC1)c1ccc(=O)oc1` [compound 14, N-Cyclohexyl-2-oxo-2H-pyran-5-carboxamide], for which the Ki on hCA IX is 0.098 µM; on hCA II, more than 100 µM; at hCA XII, 0.086 µM; on hCA I, more than 100 µM.

“N-(3-Morpholinopropyl)-2-oxo-2H-pyran-5-carboxamide [compound 15]”: the Ki was 0.326 µM at hCA IX (setting [1]), more than 100 µM at hCA II (setting [1]), 0.087 µM on hCA XII (setting [1]) and more than 100 µM at hCA I (setting [1]).

The record behind these values is publication PMC9324074, “Novel Insights on Human Carbonic Anhydrase Inhibitors Based on Coumalic Acid: Design, Synthesis, Molecular Modeling Investigation, and Biological Studies” (International Journal of Molecular Sciences, 2022).
